Source: patent US5709816A, “Singlet oxygen quenchers and external compositions containing the same” (Kao Corporation, priority 1899, dated 1998)

Legend:
[1] = Quenching rate constant of singlet oxygen (Rose Bengal photosensitization, Stern-Volmer method); assay type: biochemical; conditions: for weakening of the 1,270 nm singlet oxygen emission peak with increasing quencher concentration: 50 μM ethanol solution of Rose Bengal, 490-590 nm irradiation
From the text: Method for measuring the quenching rate constant of singlet oxygen:
The apparatus used for measuring singlet oxygen included the following parts.
(1) Light source: Xenon lamp (150 W) (Atago Bussan K.K.)
(2) Filters on the excitation side: Water filter (optical path: 50 mm), Color glass filters (HA-15, HA-30, G-533, manufactured by Hoya K.K.)
(3) Sample: Square quartz cell (2×10×50 mm)
(4) Filters on the detection side: Color glass filter (IR-85, manufactured by Hoya K.K.), Interference filter (Nippon Shinku-Kogaku K.K.)
(5) Spectrometer and detector: Spectrometer (HR-320, Jovin Yvon Co.), Germanium (Ge) detector (EO-817L, a type using liquid nitrogen as a coolant, North coast Scientic Corporation)
(6) Amplifier: Light chopper (5584, NF Co.), Frequency filter (E-3201B, NF Co.), Super low noise amplifier (SA-200F3, NF Co.), Digital storage oscilloscope (2431L, SONY Tektronix Co.)
(7) Recording section: Personal computer (PC-9801 BA, NEC Corporation), GP-IB interface
(8) Oxygen concentration control unit: High-pressure oxygen cylinder
Using this apparatus, light was irradiated onto a system which is known to produce singlet oxygen through photochemical sensitization. The wavelength of the light was within an appropriate absorption range of the photosensitizer employed. weak emission in the near infrared region, which is specific to singlet oxygen, was measured for its intensity I. Subsequently, the emission obtained when a test substance was added to the same system was measured. From the decrease in emission intensity I, the quenching rate constant of singlet oxygen of the test substance could be measured in accordance with the Stern-Volmer method. However, since some substances react with the photochemical sensitization system to cause errors in the measurements, the method described by R. H. Young et al., Photochem. Photobiol., vol. 17, p. 233 (1973) was applied to correct this contribution quenching.
A 50 μM ethanol solution of Rose Bengal in a 400 μl square quartz cell was used as a test substance.
First, the light within 490-590 nm, which is appropriate for the maximum absorption wavelength of Rose Bengal, was irradiated onto the cell containing the test substance.
Similarly, another system was subjected to measurement in which a typical singlet oxygen quencher, β-carotene, sodium azide,or 1,4-diazabicyclo[2.2.2]octane, had been added.
Measurement of the quenching rate constant of singlet oxygen: An ethanol solution of each of compounds obtained in the above-described Synthesis Examples and N-phenyldiethanolamine (compound (36)), with Rose Bengal, as a conventional photosensitizer, was used for the measurement of the quenching rate constants of singlet oxygen.
First, emission intensity I of a mixture solution containing 50 μM of Rose Bengal and the above compounds were measured under saturated air conditions. The ratio IOair /Iair was calculated, wherein Iair represents the emission intensity measured for a solution with a test substance at a concentration of Cq (Iair), and Oair represents the emission intensity measured for a solution without test substance. Next, under saturated oxygen conditions, emission intensity was measured for a solution with a test substance at the same concentration Cq (I302). Using these emission intensities, the correction term Fair was obtained in accordance with the following equation.
Interference attributed to the test substance with respect to the photosensitization reaction system was corrected by multiplying IOair /Iair by Fair.
Using the following equation:
(IOair /Iair)'=1+kq ·.tau.·Cq

[2] = system: skin of hairless mice; experiment: Inhibition of wrinkle formation in hairless mice (visual wrinkle index); assay type: in vivo, hairless mouse (HR/ICR); conditions: 5 wt. % in ethanol, 80 μl; UV-B five times per week, sixteen weeks; scale 1 (no wrinkles) to 4; control (ethanol) 3.78 ± 0.08
Experimental: (1) Inhibition of wrinkle formation in hairless mice.
(§1) To each hairless mouse (HR/ICR, 6 weeks old when the test started), a test substance (5 wt. %, in ethanol) was applied. (80 μl). Approximately 10 minutes later, UV-B was irradiated thereto using 6 bulbs of health lamps (SL20-SLE, Toshiba) so that the dose per irradiation was not greater than 1 MED. Irradiation was repeated five times per week over sixteen weeks. While the irradiation energy was measured using a UV-radiometer (UVR-305/S65D, Tokyo Optical K.K.) so that the dose per irradiation was not greater than 1 MED, energy was irradiated at an intensity of 0.28 mW/cm^2, with the total dose. 100 mJ/cm^2. As a control, a case where only ethanol was applied was similarly tested in a manner performed on the test substances.
After completion of the testing, the level of wrinkle formation was visually determined using the following standards (wrinkle indices).
1: No wrinkles are formed
2: Small amounts of wrinkles are formed
3: Moderate amounts of wrinkles are formed
4: Considerable amounts of wrinkles are formed

[3] = system: skin of hairless mice; experiment: Analysis of wrinkles in hairless mice (image analysis of skin replicas); assay type: in vivo, hairless mouse (HR/ICR); conditions: 5 wt. % in ethanol, 80 μl; UV-B sixteen weeks; shadow area of skin replicas, 30°; control (ethanol) 6.46 ± 0.68
Experimental: as §1
In order to analyze the wrinkles formed in the above step (1) in detail, replicas of different skin areas (3 replicas per mouse) each having a round shape with a diameter of 1 cm were obtained using a hydrophilic exaflex, hydrophilic vinyl silicone imaging agent. Each replica was placed horizontally and lightened from an angle of 30°. The area of shadows formed by wrinkles was analyzed as the area ratio using an image analyzing apparatus.

[4] = system: skin of colored guinea pigs; experiment: Inhibition of delayed darkening (UV-A/UV-B irradiation); assay type: in vivo; conditions: 7 wt. % in ethanol; UV-A/UV-B 50 J/cm^2; 14 days after irradiation; color difference meter
Experimental: Inhibition of delayed darkening
The hair of colored guinea pigs (8 week old, female) hair was removed, and an ethanol solution containing a test substance (7 wt. %) was applied to the skin. A mixture of UV- A/UV-B rays (50 J/cm^2, measured at 365 nm using a UV-radiometer UVR-305/365-D, Torex Co.) was irradiated onto the back of each guinea pig using a solar simulator. Fourteen days after irradiation, delayed darkening inhibition ratios were measured using a color difference meter (Model 1001P. Nippon Kogyo Co., Ltd.).

[5] = system: collagen; experiment: Inhibition of protein denaturation (collagen crosslinking, porphyrin + UV); assay type: biochemical; conditions: 0.1 wt. % in ethanol; collagen 0.5 mg/ml, porphyrin 100 mM; UV-A/UV-B 3 J/cm^2; SDS-PAGE
Experimental: Inhibition of protein denaturation
An ethanol solution containing a test substance (0.1 wt. %) was added to a mixture of collagen (0.5 mg/ml) and 2 porphyrin (100 mM). A mixture of UV-A/UV-B (3 J/cm^2, measured at 365 nm) was irradiated onto the resultant mixture using a solar simulator. The irradiated mixture was applied to SDS-PAGE electrophoresis, and collagen crosslinking inhibition ratios were measured.

[6] = system: dopachrome formation from dopa; experiment: Inhibition of immediate pigment darkening (dopachrome formation from dopa, porphyrin + UV); assay type: biochemical; conditions: 0.5 wt. % in ethanol; dopa 1 mM, porphyrin 5 mM; UV-A/UV-B 3 J/cm^2; absorption at 475 nm
Experimental: Inhibition of immediate pigment darkening
An ethanol solution containing a test substance (0.5 wt. %) was added to a mixture of dopa (1 mM) and porphyrin (5 mM). A mixture of UV-A/UV-B (3 J/cm^2, measured at 365 nm) was irradiated onto the resultant mixture using a solar simulator. The amount of dopachrome formed by irradiation was determined by measuring absorption at 475 nm.

[7] = system: E. coli vector pUC119 DNA; assay type: biochemical; conditions: 0.01 wt. % in ethanol; 100 mM porphyrin; UV-A/UV-B 3 J/cm^2; agarose gel electrophoresis
Experimental: To a mixture of […] E. coli vector pUC119 DNA and 100 mM porphyrin, an ethanol solution containing a test substance (0.01 wt. %) was added. A mixture of UV-A/UV-B (3 J/cm^2, measured at 365 nm) was irradiated onto the resultant DNA mixture using a solar simulator. A 2.5-fold amount of ethanol and a 0.1-fold amount of 5M sodium acetate were added and the DNA was precipitated. The DNA pellet was dissolved in a TE buffer, and analyzed through agarose gel electrophoresis. Inhibition of DNA single strand breaks formation was measured.

[8] = system: skin of ICR/HR mice; experiment: Inhibition of wrinkle formation in the skin of mice (UV-B, 16 weeks); assay type: in vivo, ICR/HR mouse; conditions: 1 wt. % in ethanol, 1 MED UV-B five times per week over sixteen weeks; for inhibition in vivo at 1 %: Mus musculus, topical, 2688 h
From the text: Inhibition of wrinkle formation in the skin of mice
To the back of each ICR/HR mouse (female, 6 weeks old), an ethanol solution containing a test substance (1 wt. %) was applied. One (1) MED of UV-B was irradiated thereto using a health lamp SL20-SLE (Toshiba). Irradiation was repeated five times per week over sixteen weeks. Wrinkle formation was visually scored using the following five rankings.
1: Mild and questionable wrinkles are observed
2: Mild but clear and definite wrinkles are observed
3: Moderate wrinkles are observed
4: Severe wrinkles are observed
Using the above rankings, wrinkle formations were scored and the inhibition ratios were determined by the division by the blank score.

[9] = system: cultured human fibroblasts; experiment: Inhibition of lipid peroxide formation in cultured human fibroblasts (TBA method); assay type: cell-based; conditions: 0.01 wt. % in ethanol, 100 mM porphyrin; for inhibition at 0.01 wt%: Homo sapiens, Fibroblast, light or radiation study, UV-A/UV-B 1 J/cm^2, read-out: Inhibition ratio regarding lipid peroxide formation
Experimental: Inhibition of lipid peroxide formation
Cultured human fibroblasts were combined with 100 mM porphyrin and a test substance (0.01 wt. %, in ethanol). A mixture of UV-A/UV-B rays (1 J/cm^2, measurements performed at 365 nm) was irradiated onto the resultant cell culture using a solar simulator. The fibroblasts were collected after the trypsin treatment, then extracted hydrophobic substances using acetone. The extracted substances were dried under nitrogen to prepare cellular lipid samples. A TBA method was used to measure lipid peroxides in cells and inhibition ratio by a test substance.

[10] = system: skin of white guinea pigs; experiment: Inhibition of erythema formation (UV-A/UV-B irradiation); assay type: in vivo; conditions: Cavia porcellus, light or radiation study, topical; 5 wt. % in ethanol; UV-A/UV-B 40 J/cm^2; determined after 1 day and 2 days; read-out: Erythema inhibition rate
From the text: Inhibition of erythema formation
The hair of white guinea pigs (8 weeks old, female) hair was removed by shaving, and an ethanol solution containing a test substance (5 wt. %) was applied to the shaved part of each animal. A mixture of UV-A/UV-B (40 J/cm^2, measured at 365 nm using a UV-radiometer UVR-305/365-D, Torex Co.) was irradiated onto the back of each guinea pig using a solar simulator Model 1600 (Solar Light Co.). After 1 day and 2 days of irradiation, the erythema formation was visually determined by the standards of the Japanese Dermatological Association to obtain erythema inhibition ratios.

[11] = system: sunburn cells in skin of ICR/HR mice; experiment: Inhibition of sunburn cell formation (UV-B irradiation); assay type: in vivo; conditions: 1 wt. % in ethanol, UV-B 100 mJ/cm^2, 24 hours later; for inhibition in vivo at 1 %: Mus musculus, light or radiation study, topical, read-out: Inhibition ratio regarding sunburn cell formation
From the text: Inhibition of sunburn cell formation
Ethanol solution of a test substance (1 wt. %) was applied onto the skin of ICR/HR mice. UV-B (100 mJ/cm^2) was irradiated onto the skin (health lamp SE20/SLE, Toshiba). Twenty-four hours later, the skin was biopsied and stained using hematoxylin & eosin, after which the number of sunburn cells were counted under microscope.

SMILES | weakening of the 1,270 nm singlet oxygen emission peak with increasing quencher concentration [1] | ΔΔL value [4] | Protein denaturation inhibition ratio [5] [%] | Inhibition ratio regarding immediate blackening [6] [%] | Prevention of DNA damage [7] [%] | inhibition at 0.01 wt% [9] [%] | also measured
C1CN2CCN1CC2 [1,4-diazabicyclo[2.2.2]octane, reference compound] | the peak at 1,270 nm weakened | – | – | – | – | – | –
Cc1ccc(N(Cc2ccc(C)o2)Cc2ccc(C)o2)cc1 [Compound (29), N,N-bis(5-methylfurfuyl)-4-methylphenylamine] | – | – | – | – | – | – | Wrinkle index [2]: 2.28 ± 0.06; Area ratio of image analysis [3]: 3.64 ± 0.12%
Oc1ccc(O)cc1 [Comparative compound (3), Hydroquinone, reference compound] | – | 0.7 | – | – | – | – | –
[N-]=[N+]=[N-].[Na+] [Comparative compound (4), Sodium azide, reference compound] | the peak at 1,270 nm weakened | – | 45 | 48 | 53 | – | Inhibition of wrinkle formation [8]: 28%; Inhibition ratio regarding lipid peroxide formation ([9]; UV-A/UV-B 1 J/cm^2): 37
Cc1c(C)c2c(c(C)c1O)CCC(C)(CCCC(C)CCCC(C)CCCC(C)C)O2 (stereo not drawn) [Comparative compound (6), α-Tocopherol, reference compound] | – | – | 30 | – | 34 | 42 | inhibition in vivo at 1 % [8]: 34%
CC1=C(/C=C/C(C)=C/C=C/C(C)=C/C=C/C=C(C)/C=C/C=C(C)/C=C/C2=C(C)CCCC2(C)C)C(C)(C)CCC1 [β-carotene, reference compound] | the peak at 1,270 nm weakened | – | – | – | – | – | –
COC(=O)C=Cc1ccc(OC)cc1 [Comparative compound (1), Methyl p-methoxycinnamate, reference compound] | – | 0.9 | – | – | – | – | inhibition in vivo at 5 % [10]: 31%; inhibition in vivo at 1 % [11]: 37%
[Cl][Cd][Cl] [Comparative compound (2), Cadmium chloride, reference compound] | – | – | – | – | – | – | Inhibition ratio regarding sunburn cell formation [11]: 67%
OCCN(CCO)c1ccccc1 [Compound (36), N-phenyldiethanolamine] | – | 1.2 | 69 | 64 | 58 | 46 | inhibition in vivo at 5 % [10]: 48%; inhibition in vivo at 1 % [11]: 62%; Extinction rate constant of singlet oxygen ([1]; kq, ethanol solution, 50 μM Rose Bengal, singlet oxygen lifetime taken as 10 μs): 5.8e+07 M⁻¹ s⁻¹
O=C1O[C@H]([C@@H](O)CO)C(O)=C1O [Comparative compound (5), Ascorbic acid, reference compound] | – | – | – | 42 | 21 | 43 | inhibition in vivo at 1 % [8]: 11%
